Columns and labels:
Mino = assay: Antiproliferative activity, CCK-8, Mino; format: cell-based; settings: Mantle cell lymphoma, read-out: Cytotoxicity (IC50 μM)
Description: (§1) The tumor cells used were purchased from commercial cell banks (HCT116 purchased from ATCC, SKM 1 purchased from JCRB). The growth inhibition of cells was detected using the CCK-8 method. The specific steps were as follows. Cells in the logarithmic growth phase were seeded into a 96 well culture plate at an appropriate density, with 90 μL/well. After overnight cultivation, different concentrations of drugs were added for treatment for 72 h, with each concentration in triplicate, and corresponding concentration of vehicle control and cell-free blank wells were also set. After the treatment, 10 μL of CCK-8 was added to each well and the plate was incubated in an incubator for 2-4 hours, and the optical density (OD value) at a wavelength of 450 nm was measured using a SpectraMax 190 microplate reader. […] The experiment was repeated twice, and the mean value and SD were calculated.
(§2) The testing method for antiproliferative activity was the same as that mentioned in Pharmacological Experiment Example 2, and the results are shown in Table 4 and FIGS. 2-3.

A2058 = assay: Antiproliferative activity, CCK-8, A2058; format: cell-based; settings: A2058, Melanoma; read-out: Cytotoxicity (IC50 μM)
Description: as §1, §2

KMS-11 = assay: Antiproliferative activity, CCK-8, KMS-11; format: cell-based; settings: KMS-11, Human multiple myeloma; read-out: Cytotoxicity (IC50 μM)
Description: as §1, §2

NU-DHL-1 = assay: Antiproliferative activity, CCK-8, NU-DHL-1; format: cell-based; settings: NU-DHL-1, Diffuse large B-cell lymphoma; read-out: Cytotoxicity (IC50 μM)
Description: as §1, §2

OCI-LY-3 = assay: Antiproliferative activity, CCK-8, OCI-LY-3; format: cell-based; settings: OCI-LY-3, Diffuse large B-cell lymphoma; read-out: Cytotoxicity (IC50 μM)
Description: as §1, §2

HDAC6 = HDAC6 (Homo sapiens (Human), UniProt Q9UBN7); assay: In vitro histone deacetylase activity assay (HTRF), HDAC6; format: biochemical; settings: H3(1-21) K9Ac biotin substrate
Chain of HDAC6 (Q9UBN7 whole entry): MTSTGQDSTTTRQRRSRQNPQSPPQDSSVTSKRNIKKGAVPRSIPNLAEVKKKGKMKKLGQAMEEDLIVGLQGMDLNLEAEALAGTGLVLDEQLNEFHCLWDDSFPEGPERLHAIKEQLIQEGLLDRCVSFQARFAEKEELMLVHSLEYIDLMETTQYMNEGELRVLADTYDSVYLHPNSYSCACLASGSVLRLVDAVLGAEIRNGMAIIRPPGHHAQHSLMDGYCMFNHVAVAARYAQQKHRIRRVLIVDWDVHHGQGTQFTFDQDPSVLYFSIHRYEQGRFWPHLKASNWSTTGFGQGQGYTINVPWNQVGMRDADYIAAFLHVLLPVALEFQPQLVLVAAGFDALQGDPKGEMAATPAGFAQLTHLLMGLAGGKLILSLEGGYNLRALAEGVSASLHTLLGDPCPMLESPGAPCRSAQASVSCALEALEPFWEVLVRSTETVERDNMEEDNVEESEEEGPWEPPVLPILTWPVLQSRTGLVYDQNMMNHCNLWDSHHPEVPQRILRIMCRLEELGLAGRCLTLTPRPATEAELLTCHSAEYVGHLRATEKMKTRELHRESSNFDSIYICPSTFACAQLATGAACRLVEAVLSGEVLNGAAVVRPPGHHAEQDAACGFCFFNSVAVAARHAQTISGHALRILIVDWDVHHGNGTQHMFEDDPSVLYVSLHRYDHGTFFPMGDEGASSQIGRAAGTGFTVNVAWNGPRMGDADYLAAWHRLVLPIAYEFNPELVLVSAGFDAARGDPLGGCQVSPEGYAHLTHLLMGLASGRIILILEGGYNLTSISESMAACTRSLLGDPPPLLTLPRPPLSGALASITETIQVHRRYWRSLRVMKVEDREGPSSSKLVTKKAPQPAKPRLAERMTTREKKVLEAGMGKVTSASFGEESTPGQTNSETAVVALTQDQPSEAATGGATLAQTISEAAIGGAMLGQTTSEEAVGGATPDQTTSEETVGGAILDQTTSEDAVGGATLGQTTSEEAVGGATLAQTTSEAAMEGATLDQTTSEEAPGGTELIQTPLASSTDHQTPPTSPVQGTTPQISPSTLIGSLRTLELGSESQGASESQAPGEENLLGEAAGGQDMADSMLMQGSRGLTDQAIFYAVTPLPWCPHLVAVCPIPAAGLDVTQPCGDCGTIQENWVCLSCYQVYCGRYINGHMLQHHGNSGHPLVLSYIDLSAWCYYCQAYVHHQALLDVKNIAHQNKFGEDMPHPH
Description: (§3) Human recombinant HDAC family proteins with His and GST tags were expressed using insect baculovirus expression system, and a biologically active HDAC family recombinant protein was obtained through Ni affinity column protein purification. HTRF detection method was used with H3(1-21) K9Ac biotin as the substrate. […] Briefly, 20 μl of the activity testing system included the HDAC substrate (0.2 μM. 4 μl), the Human Recombinant Protein HDAC (2-5 ng)/μl.

MV-4-11 = assay: Antiproliferative activity, CCK-8, MV-4-11; format: cell-based; settings: MV-4-11, Acute monocyte/Monocyte leukemia; read-out: Cytotoxicity (IC50 μM)
Description: as §1, §2

[1] = system: human myelodysplastic syndrome cells SKM-1 transplanted tumor; assay: SKM-1 NOD/SCID mice transplanted tumor model; format: in vivo; settings: oral 60 mg/kg qd, 18 days
OCI-AML3 = assay: Antiproliferative activity, CCK-8, OCI-AML3; format: cell-based; settings: OCI-AML3, Human acute myeloid leukemia; read-out: Cytotoxicity (IC50 μM)
Description: as §1, §2

[2] = system: human acute myeloid leukemia cells OCI-AML-3 transplanted tumor; assay: OCI-AML-3 NOD/SCID mice transplanted tumor model; format: in vivo; settings: oral 60 mg/kg
SU-DHL-6 = assay: Antiproliferative activity, CCK-8, SU-DHL-6; format: cell-based; settings: SU-DHL-6, Diffuse large B-cell lymphoma; read-out: Cytotoxicity (IC50 μM)
Description: as §1, §2

TMD8 = assay: Antiproliferative activity, CCK-8, TMD8; format: cell-based; settings: TMD8, Diffuse large B-cell lymphoma; read-out: Cytotoxicity (IC50 μM)
Description: as §1, §2

VMM39 = assay: Antiproliferative activity, CCK-8, VMM39; format: cell-based; settings: VMM39, Melanoma; read-out: Cytotoxicity (IC50 μM)
Description: as §1, §2

SK-BR-3 = assay: Antiproliferative activity, CCK-8, SK-BR-3; format: cell-based; settings: SK-BR-3, Breast cancer; read-out: Cytotoxicity (IC50 μM)
Description: as §1, §2

PC-9 = assay: Antiproliferative activity, CCK-8, PC-9; format: cell-based; settings: PC-9, Lung cancer; read-out: Cytotoxicity (IC50 μM)
Description: as §1, §2

HDAC8 = HDAC8 (Homo sapiens (Human), UniProt Q9BY41); assay: HDAC subtype inhibitory activity (HTRF), HDAC8; format: biochemical
Chain of HDAC8 (Q9BY41 whole entry): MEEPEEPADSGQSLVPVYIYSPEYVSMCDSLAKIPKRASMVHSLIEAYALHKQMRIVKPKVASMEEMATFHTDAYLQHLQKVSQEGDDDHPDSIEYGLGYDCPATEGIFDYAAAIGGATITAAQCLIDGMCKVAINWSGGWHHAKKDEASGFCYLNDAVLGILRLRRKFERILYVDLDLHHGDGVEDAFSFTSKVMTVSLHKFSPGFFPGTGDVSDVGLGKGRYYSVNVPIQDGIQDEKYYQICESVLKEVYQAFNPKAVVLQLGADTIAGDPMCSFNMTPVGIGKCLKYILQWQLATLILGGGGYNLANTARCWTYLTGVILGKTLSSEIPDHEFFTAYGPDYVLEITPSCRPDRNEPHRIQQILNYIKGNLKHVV
Description: as §3

RL = assay: Antiproliferative activity, CCK-8, RL; format: cell-based; settings: Diffuse large B-cell lymphoma, read-out: Cytotoxicity (IC50 μM)
Description: as §1, §2

U937 = assay: Antiproliferative activity, CCK-8, U937; format: cell-based; settings: U937, Human tissue cell lymphoma; read-out: Cytotoxicity (IC50 μM)
Description: as §1, §2

HuT78 = assay: Antiproliferative activity, CCK-8, HuT78; format: cell-based; settings: HuT78, Human T-lymphocytic leukemia; read-out: Cytotoxicity (IC50 μM)
Description: as §1, §2

OCI-LY-10 = assay: Antiproliferative activity, CCK-8, OCI-LY-10; format: cell-based; settings: OCI-LY-10, Diffuse large B-cell lymphoma; read-out: Cytotoxicity (IC50 μM)
Description: as §1, §2

HDAC3 = HDAC3 (Homo sapiens (Human), UniProt O15379); assay: HDAC subtype inhibitory activity (HTRF), HDAC3; format: biochemical
Chain of HDAC3 (O15379 whole entry): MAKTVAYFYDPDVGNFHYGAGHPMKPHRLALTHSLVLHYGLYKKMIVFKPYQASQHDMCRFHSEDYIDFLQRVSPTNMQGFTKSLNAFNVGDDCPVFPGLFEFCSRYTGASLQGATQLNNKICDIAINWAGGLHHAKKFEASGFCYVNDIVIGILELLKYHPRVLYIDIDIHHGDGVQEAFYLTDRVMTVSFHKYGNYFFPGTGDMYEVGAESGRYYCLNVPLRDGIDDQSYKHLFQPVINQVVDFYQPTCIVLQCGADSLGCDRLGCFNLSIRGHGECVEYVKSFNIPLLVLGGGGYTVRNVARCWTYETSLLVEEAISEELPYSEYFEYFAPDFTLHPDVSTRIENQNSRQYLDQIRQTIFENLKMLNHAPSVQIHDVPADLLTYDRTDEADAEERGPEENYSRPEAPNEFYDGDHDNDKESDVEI
Chain of HDAC3 (Q9Y618 395-489 partner): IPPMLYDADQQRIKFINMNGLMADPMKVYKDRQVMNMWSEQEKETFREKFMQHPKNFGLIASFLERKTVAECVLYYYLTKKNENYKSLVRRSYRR
Description: as §3

SK-MEL-2 = assay: Antiproliferative activity, CCK-8, SK-MEL-2; format: cell-based; settings: SK-MEL-2, Melanoma; read-out: Cytotoxicity (IC50 μM)
Description: as §1, §2

HDLM-2 = assay: Antiproliferative activity, CCK-8, HDLM-2; format: cell-based; settings: HDLM-2, Hodgkin's lymphoma; read-out: Cytotoxicity (IC50 μM)
Description: as §1, §2

KARPAS-1106P = assay: Antiproliferative activity, CCK-8, KARPAS-1106P; format: cell-based; settings: Primary mediastinal large B-cell lymphoma, read-out: Cytotoxicity (IC50 μM)
Description: as §1, §2

HDAC1 = HDAC1 (Homo sapiens (Human), UniProt Q13547); assay: In vitro histone deacetylase activity assay (HTRF), HDAC1; format: biochemical; settings: H3(1-21) K9Ac biotin substrate
Chain of HDAC1 (Q13547 whole entry): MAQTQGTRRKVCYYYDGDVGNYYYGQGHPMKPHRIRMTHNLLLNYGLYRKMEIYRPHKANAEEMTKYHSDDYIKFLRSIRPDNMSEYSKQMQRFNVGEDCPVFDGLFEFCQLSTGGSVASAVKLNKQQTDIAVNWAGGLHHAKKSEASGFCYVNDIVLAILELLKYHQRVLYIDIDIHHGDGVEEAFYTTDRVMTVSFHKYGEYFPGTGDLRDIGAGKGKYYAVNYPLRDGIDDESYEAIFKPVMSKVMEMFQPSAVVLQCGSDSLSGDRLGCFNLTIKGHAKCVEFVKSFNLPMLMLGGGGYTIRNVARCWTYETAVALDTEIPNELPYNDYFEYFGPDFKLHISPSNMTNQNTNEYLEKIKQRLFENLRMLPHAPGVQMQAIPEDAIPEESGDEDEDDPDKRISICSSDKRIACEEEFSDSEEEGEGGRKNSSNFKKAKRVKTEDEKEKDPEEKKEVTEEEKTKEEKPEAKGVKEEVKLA
Description: as §3

`C[C@@H](c1ccc(C(=O)Nc2ccc(F)cc2N)cc1)n1nc(-c2ccc(CN(C)C)cc2)ccc1=O` [Compound I-1] was tested, and the IC50 (Mino) was 0.142 ± 0.013 µM, the IC50 (A2058) was 0.562 ± 0.011 µM and the IC50 (KMS-11) was 0.671 ± 0.01 µM. It also gave an IC50 (NU-DHL-1) of 0.243 µM, an IC50 (OCI-LY-3) of 0.198 ± 0.048 µM and an IC50 (HDAC6) of over 10000 nM. The IC50 (MV-4-11) was 0.088 ± 0.002 µM, the “relative tumor proliferation rate (T/C)” value [1] was 11.78% and the IC50 (OCI-AML3) was 0.121 ± 0.003 µM. For the same compound, the “relative tumor proliferation rate (T/C)” value ([2]; OCI-AML-3 transplanted tumor, 14 days) was 7.75%, the “body weight of mice” value ([2]; during the transplanted tumor experiment) was “remained basically unchanged” and the IC50 (SU-DHL-6) was 0.576 ± 0.066 µM. It also gave an IC50 (TMD8) of 0.807 ± 0.142 µM, an IC50 (VMM39) of 0.46 ± 0.032 µM and an IC50 (SK-BR-3) of 0.72 ± 0.032 µM. It also gave an IC50 (PC-9) of 0.461 ± 0.034 µM, an IC50 (HDAC8) of over 100000 nM and an IC50 (RL) of 0.24 ± 0.019 µM. The IC50 (U937) was 0.435 ± 0.254 µM, the IC50 (HuT78) was 0.769 ± 0.461 µM and the IC50 (OCI-LY-10) was 0.297 ± 0.042 µM. It also gave an IC50 (HDAC3) of 420 ± 105 nM, an IC50 (SK-MEL-2) of 0.799 ± 0.042 µM and an IC50 (HDLM-2) of 0.647 ± 0.404 µM. It also gave an IC50 (KARPAS-1106P) of 0.498 ± 0.009 µM and an IC50 (HDAC1) of 57.6 ± 4.42 nM.

Source: patent US20240150300A1, “S-CONFIGURATION-CONTAINING AMINO BENZAMIDE PYRIDAZINONE COMPOUND, PREPARATION METHOD THEREFOR, AND PHARMACEUTICAL COMPOSITION AND APPLICATION THEREOF” (SHANGHAI INSTITUTE OF MATERIA MEDICA, CHINESE ACADEMY OF …, priority 2021, published 2024)
